# Results as given in patent publication US4725577A, “Biologically active lysine containing octapeptides” (Administrators of the Tulane Educational Fund, priority 1986, dated 1988).
# Non-standard residues stand in square brackets, D forms with d. Residues, ends and D or L forms follow the SMILES beside them.
# Legend:
# [1] = tested on: GH Release; test: in vivo growth hormone bioassay in pentobarbital-anesthetized male rats, s.c. injection, plasma GH by RIA; parameters: species or system rat; details: for INHIBITION POTENCY GH in vivo: Table C, relative potency, SS-14 = 100, based on 4-point assays
# Procedure: The in vivo growth hormone bioassay utilized is as follows:
# Male Charles River CD rats (200-300 g.) with free access to food and water were anesthetized with sodium pentobarbital (60 mg.kg intraperitoneally). Thirty minutes later saline or octapeptide is injected subcutaneously and blood samples are drawn from the jugular vein 15 minutes after subcutaneous injection. The plasma is separated and assayed for growth hormone by RIA as described above. This in vivo bioassay is a modification of the methods used by Schally, et al., "Hypothalamic Peptide Hormones: Basic and Clinical Studies", "Hormonal Proteins and Peptides", C. H. Li, ed. Academic Press, N.Y. 7: 1-54, 1978; Meyers, C. A., Murphy, W. A., Redding T. W., Coy, D. H. and Schally, A. V., Proc. Natl. Acad. Sci., USA 77: 6171, 1980; Murphy, W. A., Meyers, C. A. and Coy, D. H., Endoc. 109: 491, (1981) as well as Veber et al., Pro. Natl. Acad. Sci., USA 75: 2636-2640 (1978). For some analogs, doses as low as 0.02 μg/100 g. or even 0.005 μg/ 100 g. are active. The potency of the octapeptides of this invention relative to somatostatin is illustrated in Tables A, B and C. Single dose assays are shown in Table A and 4 point assays at 2 dose levels in Tables B and C.
# [2] = tested on: pentagastrin or desglugastrin-induced gastric acid output; test: gastric acid secretion in dogs with gastric fistulae; format: in vivo
# Procedure: In order to compare some of the biological actions of the octapeptides of the present invention and somatostatin on gastrointestinal secretions and on the release of some gastrointestinal homones in dogs, the following procedures are used:
# Mongrel dogs weighing 15-20 kg. are prepared surgical with gastric (GF) and pancreatic fistulae (PF) as described by Konturek, et al., (1976) 225, 497 and Konturek, et al., Gastroenterology, (1976) 58, 1-6. Secretions from the GF and PF are collected continuously at 15 minute intervals. Hydrogen ion and pepsin concentrations in the […] are also measured in 15- or 30-minute outputs. (Konturek, et al., J. Physiol. Lond., 255, 497 (1976) and Konturek, et al., (1976) supra.). Basal secretion is first collected for two 15 minute periods, and then the secretory stimulant for gastric and/or pancreatic secretion is administered for 31/2 hours. When the secretory rate reaches a subtained plateau, the octapeptides or somatostatin are given in standard doses (2-μg/Kg/hr.). i.v. for a one hour period. […]
# In tests on gastric stimulation, pentagastrin or desglugastrin (glutaroyl-Ala-Tyr-Gly-Trp-Leu-Asp-Phe-NH2) is infused i.v. in a constant dose (3 μg/kg/hr.), shown previously to elicit near maximal gastric acid secretion. Gastric secretion is measured and acid content determined by titration with 0.1N NaOH. […]
# [3] = tested on: growth hormone release; test: time course of growth hormone suppression in vivo in Nembutal-anesthetized male rats; parameters: species or system rat; details: 2 μg/100 g
# Procedure: In order to determine the time course of the compounds of this invention, male rats are anesthetized with Nembutal and injected with saline or the test octapeptide as in the growth hormone potency assay above. Blood is collected from the jugular vein 15, 30, 45, 60, 90, 120 and 180 minutes post subcutaneous above. This time-course experiment for octapeptides on growth hormone release in vivo a significant suppression of plasma growth hormone. […] At the dose of 2 μg/100 g., the inhibitory effect of somatostatin on growth hormone release is no longer observed after 30 minutes (FIG. 1).
# [4] = tested on: CPZ and Morphine stimulated GH secretion; test: potency #3, time course of CPZ and Morphine stimulated GH secretion; format: in vivo; details: injected dose 2.0
# From the text: *Based on time course of CPZ and Morphine stimulated GH secretion.
# [5] = tested on: insulin release; test: inhibition of insulin release in vivo in fasted male rats, i.v. injection, portal plasma insulin by RIA; parameters: species or system rat; details: Table C; relative potency, SS-14 = 100; based on 4-point assays
# Procedure: The octapeptides of the present invention are also compared to synthetic somatostatin for their ability to inhibit the release of insulin and glucagon in vivo in male rats (CD strain, Charles River) weighing 250-300 g. The rats are kept in controlled temperature (24° C.) and light (0500-1900 h) conditions for 1 week before the assay. Rats are fasted 27-30 hours with free access to water then anesthetized with Nembutal (6 mg/100 g. intraperitoneally). After 30 minutes, saline or test peptide is injected into the jugular vein and blood is collected 5 minutes later from the hepatic portal vein then transferred into chilled tubes containing EDTA (2.5 mg/ml.) and Trasylol (500 K.I.U./ml.). Plasma is separated and stored at -20° C. until assayed for insulin and glucagon. Plasma insulin is determined by double antibody radioimmunoassay using a kit from Cambridge Medical Diagnostics.
# [6] = tested on: well differentiated (WD), chemically induced ductal adenocarcinoma; details: given twice daily or as controlled-release microcapsules; pancreatic cancer model not given; cited from earlier work
compound,measurement,setting,value
"CC(=O)N[C@H](Cc1ccccc1)C(=O)N[C@@H](CS)C(=O)N[C@@H](Cc1ccccc1)C(=O)N[C@H](Cc1c[nH]c2ccccc12)C(=O)N[C@@H](CCCCN)C(=O)N[C@H](C(=O)N[C@@H](CS)C(=O)N1CCC[C@H]1C(N)=O)[C@@H](C)O [RC-76-2H, AcD-PheCysPheD-TrpLysThrCysProNH2] (Ac-[dF]CF[dW]KTCP-NH2)",INHIBITION POTENCY GH in vivo,[1],1070
"CC(=O)N[C@@H](Cc1ccccc1)C(=O)N[C@@H](CS)C(=O)N[C@@H](Cc1ccccc1)C(=O)N[C@H](Cc1c[nH]c2ccccc12)C(=O)N[C@@H](CCCCN)C(=O)N[C@H](C(=O)N[C@@H](CS)C(=O)N[C@H](C(N)=O)[C@@H](C)O)[C@@H](C)O [RC-101-I-2H, AcPheCysPheD-TrpLysThrCysThrNH2]",INHIBITION POTENCY GH in vivo,[1],11320
"CC(=O)N[C@H](Cc1ccccc1)C(=O)N[C@@H](CS)C(=O)N[C@@H](Cc1ccccc1)C(=O)N[C@H](Cc1c[nH]c2ccccc12)C(=O)N[C@@H](CCCCN)C(=O)N[C@H](C(=O)N[C@@H](CS)C(=O)N[C@H](C(N)=O)[C@@H](C)O)[C@@H](C)O [RC-101-II-2H, AcD-PheCysPheD-TrpLysThrCysThrNH2]",INHIBITION POTENCY GH in vivo,[1],12900
CC(=O)N[C@@H](Cc1ccccc1)C(=O)N[C@H]1CSSC[C@@H](C(=O)N[C@H](C(N)=O)[C@@H](C)O)NC(=O)[C@H]([C@@H](C)O)NC(=O)[C@H](CCCCN)NC(=O)[C@@H](Cc2c[nH]c3ccccc23)NC(=O)[C@H](Cc2ccccc2)NC1=O [RC-101-I],INHIBITION POTENCY GH in vivo,[1],13560
CC(=O)N[C@H](Cc1ccccc1)C(=O)N[C@H]1CSSC[C@@H](C(=O)N[C@H](C(N)=O)[C@@H](C)O)NC(=O)[C@H](C(C)C)NC(=O)[C@H](CCCCN)NC(=O)[C@@H](Cc2c[nH]c3ccccc23)NC(=O)[C@H](Cc2ccc(O)cc2)NC1=O [RC-161],INHIBITION POTENCY GH in vivo,[1],5520
"C[C@H](N)C(=O)NCC(=O)N[C@H]1CSSC[C@@H](C(=O)O)NC(=O)[C@H](CO)NC(=O)[C@H]([C@@H](C)O)NC(=O)[C@H](Cc2ccccc2)NC(=O)[C@H]([C@@H](C)O)NC(=O)[C@H](CCCCN)NC(=O)[C@H](Cc2c[nH]c3ccccc23)NC(=O)[C@H](Cc2ccccc2)NC(=O)[C@H](Cc2ccccc2)NC(=O)[C@H](CC(N)=O)NC(=O)[C@H](CCCCN)NC1=O [SS-14, Somatostatin]",duration of gastric acid inhibition after infusion,[2]; dogs with gastric fistulae,short-lived
same,inhibition of gastric acid output from the gastric fistula,"[2]; i.v. infusion for one hour, pentagastrin or desglugastrin stimulation",strongly inhibit
same,GH Level 15',"[1]; Potency assay #1 (89th experiment), 0.4 μg/100 g B.W., control 116 ± 10",88 ± 22 ng/mL
same,GH Level 15',"[1]; Potency assay #1, 1.6 μg/100 g B.W., control 116 ± 10",53 ± 10 ng/mL
same,GH Level 15',"[1]; Potency assay #2 (108th experiment), 0.2 μg/100 g B.W., control 211 ± 56",171 ± 26 ng/mL
same,GH Level 15',"[1]; Potency assay #2, 0.8 μg/100 g B.W., control 211 ± 56",91 ± 12 ng/mL
same,GH-Level mean ± SEM,"[1]; Table A single dose assay, 2.00 μg/100 g B.W. s.c., saline control 374 ± 69",50 ± 12 ng/mL
same,GH-Level mean ± SEM,"[1]; Table A single dose assay, 2.00 μg/100 g B.W. s.c., saline control 754 ± 155",95 ± 31 ng/mL
same,GH-Level mean ± SEM,"[1]; Table B four-point assay, 0.4 μg/100 g B.W., saline control 277 ± 166",86 ± 16 ng/mL
same,GH-Level mean ± SEM,"[1]; Table B four-point assay, 1.6 μg/100 g B.W., saline control 277 ± 166",47 ± 17 ng/mL
same,INHIBITION POTENCY GH in vivo,[1],100
same,time after which inhibitory effect on growth hormone release is no longer observed,[3],≤ 30 min
same,GH-RH LEVEL,[4],0.1032
same,INHIBITION POTENCY INSULIN in vivo,[5],100
D-Trp-6-LH-RH,tumor weight and volume,[6],significantly decreased
